Test results from PubChem BioAssay AID2060625 (Molecular Pharmacology Branch, DTP, NCI, 2025).
Values joined by “and” are separate entries in the source; they are usually repeats but may differ in a detail not shown here. Equal values may be shown once.

Tested on: 186277-243-T-J2-PDC spheroids with HUVEC/MSC, viability
Test: Anticancer human tumor 186277-243-T-J2-PDC patient-derived colon adenocarcinoma cell line growth inhibition [CLK]
Details: for viability, T/C: stronger effect = lower value
Outline: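 Patient-derived tumor cells grown as complex spheroids with HUVEC endothelial cells and mesenchymal stem cells, treated with drug combinations. Concentrations descend in half-log steps from near clinical Cmax, or from 10 microM if Cmax unknown.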

[1] = curve of first compound, second compound 0.0316 µM
[2] = curve of first compound, second compound 0.1 µM
[3] = curve of first compound, second compound 0.316 µM
[4] = curve of first compound, second compound 1 µM
[5] = curve of first compound, second compound 3.16 µM
[6] = curve of first compound, second compound 10 µM
[7] = second compound 0.0316 µM, first compound 0.0316 µM
[8] = second compound 0.0316 µM, first compound 0.1 µM
[9] = second compound 0.0316 µM, first compound 0.316 µM
[10] = second compound 0.0316 µM, first compound 1 µM
[11] = second compound 0.0316 µM, first compound 3.16 µM
[12] = second compound 0.0316 µM, first compound 10 µM
[13] = second compound 0.1 µM, first compound 0.0316 µM
[14] = second compound 0.1 µM, first compound 0.1 µM
[15] = second compound 0.1 µM, first compound 0.316 µM
[16] = second compound 0.1 µM, first compound 1 µM
[17] = second compound 0.1 µM, first compound 3.16 µM
[18] = second compound 0.1 µM, first compound 10 µM
[19] = second compound 0.316 µM, first compound 0.0316 µM
[20] = second compound 0.316 µM, first compound 0.1 µM
[21] = second compound 0.316 µM, first compound 0.316 µM
[22] = second compound 0.316 µM, first compound 1 µM
[23] = second compound 0.316 µM, first compound 3.16 µM
[24] = second compound 0.316 µM, first compound 10 µM
[25] = second compound 1 µM, first compound 0.0316 µM
[26] = second compound 1 µM, first compound 0.1 µM
[27] = second compound 1 µM, first compound 0.316 µM
[28] = second compound 1 µM, first compound 1 µM
[29] = second compound 1 µM, first compound 3.16 µM
[30] = second compound 1 µM, first compound 10 µM
[31] = second compound 3.16 µM, first compound 0.0316 µM
[32] = second compound 3.16 µM, first compound 0.1 µM
[33] = second compound 3.16 µM, first compound 0.316 µM
[34] = second compound 3.16 µM, first compound 1 µM
[35] = second compound 3.16 µM, first compound 3.16 µM
[36] = second compound 3.16 µM, first compound 10 µM
[37] = second compound 10 µM, first compound 0.0316 µM
[38] = second compound 10 µM, first compound 0.1 µM
[39] = second compound 10 µM, first compound 0.316 µM
[40] = second compound 10 µM, first compound 1 µM
[41] = second compound 10 µM, first compound 3.16 µM
[42] = second compound 10 µM, first compound 10 µM
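Note: compound exposure lasted seven days before readout.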
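Throughout, for viability, T/C: 100% = DMSO vehicle control wells.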

`COc1ccc([C@@H](O)c2cc(-c3ncnc4cc(N5CCOCC5)ccc34)c(F)cc2Cl)nn1` + CNC(=O)c1ccc(Nc2nc(OC3CCCC3)c3c(-c4ccc5nc(C)oc5c4)c[nH]c3n2)c(OC)c1 was tested, and the IC50 [1] was 7660 nM, the IC50 [2] was 384 nM and the IC50 [3] was less than 31.6 nM. For the same compound, the IC50 [4] was less than 31.6 nM, the IC50 [5] was less than 31.6 nM and the IC50 [6] was less than 31.6 nM. It also gave a viability, T/C [7] of 102%, a viability, T/C [8] of 86.8% and a viability, T/C [9] of 110%. It also gave a viability, T/C [10] of 87.6%, a viability, T/C [11] of 73.7% and a viability, T/C [12] of 43%. It also gave a viability, T/C [13] of 71.8%, a viability, T/C [14] of 62.5% and a viability, T/C [15] of 50.2%. For the same compound, the viability, T/C [16] was 42.7%, the viability, T/C [17] was 31.9% and the viability, T/C [18] was 23.5%. It also gave a viability, T/C [19] of 38.7%, a viability, T/C [20] of 40.7% and a viability, T/C [21] of 29.9%. It also gave a viability, T/C [22] of 23.7%, a viability, T/C [23] of 18.6% and a viability, T/C [24] of 14.5%. For the same compound, the viability, T/C [25] was 30.4%, the viability, T/C [26] was 25.2% and the viability, T/C [27] was 23.4%. The viability, T/C [28] was 16.2%, the viability, T/C [29] was 12.9% and the viability, T/C [30] was 12.2%. For the same compound, the viability, T/C [31] was 27.1%, the viability, T/C [32] was 29.2% and the viability, T/C [33] was 23.2%. The viability, T/C [34] was 18.5%, the viability, T/C [35] was 16% and the viability, T/C [36] was 10.7%. It also gave a viability, T/C [37] of 28.7%, a viability, T/C [38] of 29.5% and a viability, T/C [39] of 23.2%. For the same compound, the viability, T/C [40] was 19.8%, the viability, T/C [41] was 17.2% and the viability, T/C [42] was 9%.
`CC1COCCN1c1cc(C2(S(C)(=N)=O)CC2)nc(-c2ccnc3[nH]ccc23)n1` (configuration not stated) was tested, and the viability, T/C (compound 0.0316 µM) was 103% and 82.6%, the viability, T/C (compound 0.1 µM) was 85.5% and 88% and the viability, T/C (compound 0.316 µM) was 96.9% and 95%. For the same compound, the viability, T/C (compound 1 µM) was 122% and 103%, the viability, T/C (compound 3.16 µM) was 41.2% and 34% and the viability, T/C (compound 10 µM) was 15% and 13.5%. For the same compound, the IC50 (curve of compound) was 2680 nM and 2310 nM.
For `C=CC(=O)Nc1cc(Nc2nccc(-c3cn(C)c4ccccc34)n2)c(OC)cc1N(C)CCN(C)C`, the viability, T/C (compound 0.000949 µM) was 84.2% and 100%, the viability, T/C (compound 0.003 µM) was 98.2% and 101% and the viability, T/C (compound 0.00949 µM) was 84.3% and 112%. The viability, T/C (compound 0.03 µM) was 82.3% and 97.6%, the viability, T/C (compound 0.0949 µM) was 83.6% and 116% and the viability, T/C (compound 0.3 µM) was 87.2% and 95.1%. For the same compound, the IC50 (curve of compound) was greater than 300 nM.
In the case of `O=c1[nH]cc(F)c(=O)[nH]1` + CN1CCN(c2cc(C(=O)Nc3cc4cc(-c5cnn(C)c5)ccc4cn3)ccn2)CC1, the IC50 [1] is reported as greater than 10000 nM, the IC50 [2] is reported as 6160 nM and the IC50 [3] is reported as less than 31.6 nM. For the same compound, the IC50 [4] was less than 31.6 nM, the IC50 [5] was less than 31.6 nM and the IC50 [6] was less than 31.6 nM. For the same compound, the viability, T/C [7] was 86.8%, the viability, T/C [8] was 85.2% and the viability, T/C [9] was 101%. The viability, T/C [10] was 86.2%, the viability, T/C [11] was 73% and the viability, T/C [12] was 56.3%. The viability, T/C [13] was 81.4%, the viability, T/C [14] was 76.6% and the viability, T/C [15] was 87%. It also gave a viability, T/C [16] of 82.6%, a viability, T/C [17] of 62.6% and a viability, T/C [18] of 40.8%. It also gave a viability, T/C [19] of 21.7%, a viability, T/C [20] of 19.2% and a viability, T/C [21] of 22.6%. It also gave a viability, T/C [22] of 23.1%, a viability, T/C [23] of 23.5% and a viability, T/C [24] of 21%. For the same compound, the viability, T/C [25] was 1.33%, the viability, T/C [26] was 0.66% and the viability, T/C [27] was 0.91%. It also gave a viability, T/C [28] of 1.78%, a viability, T/C [29] of 1.34% and a viability, T/C [30] of 1.32%. It also gave a viability, T/C [31] of 3.16%, a viability, T/C [32] of 0.66% and a viability, T/C [33] of 1.53%. It also gave a viability, T/C [34] of 0.93%, a viability, T/C [35] of 2.49% and a viability, T/C [36] of 0.81%. The viability, T/C [37] was 3.05%, the viability, T/C [38] was 0.66% and the viability, T/C [39] was 0.92%. For the same compound, the viability, T/C [40] was 1.07%, the viability, T/C [41] was 0.96% and the viability, T/C [42] was 0.38%.
For `COc1c(OCCCN2CCOCC2)ccc2c3n(c(=NC(=O)c4cnc(N)nc4)nc12)CCN3`, the viability, T/C (compound 0.00316 µM) was 84.7% and 90.2%, the viability, T/C (compound 0.01 µM) was 91.5% and 103% and the viability, T/C (compound 0.0316 µM) was 63.3% and 52.9%. The viability, T/C (compound 0.1 µM) was 40% and 23.9%, the viability, T/C (compound 0.316 µM) was 23.7% and 13.1% and the viability, T/C (compound 1 µM) was 15.5% and 8.53%. The IC50 (curve of compound) was 63.6 nM and 34.6 nM.
With `CC(=O)O[C@H]1C(=O)[C@@]2(C)[C@H]([C@H](OC(=O)c3ccccc3)[C@]3(O)C[C@H](OC(=O)[C@H](O)[C@@H](NC(=O)c4ccccc4)c4ccccc4)C(C)=C1C3(C)C)[C@]1(OC(C)=O)CO[C@@H]1C[C@@H]2O` the viability, T/C (compound 0.0316 µM) was 25.2% and 16.5%, the viability, T/C (compound 0.1 µM) was 12.1% and 8.36% and the viability, T/C (compound 0.316 µM) was 11.6% and 7.98%. The viability, T/C (compound 1 µM) was 10.8% and 6.74%, the viability, T/C (compound 3.16 µM) was 8.76% and 8.77% and the viability, T/C (compound 10 µM) was 10.4% and 7.1%. The IC50 (curve of compound) was less than 31.6 nM.
